Results reported in US20250129069A1, “TRIAZOLO WRN INHIBITORS” (Nimbus Wadjet, Inc., priority 2023, published 2025).

Each molecule was assayed on p21 induction in HCT 116 cells (assay: p21 induction in cells (In-Cell Western, p21/GAPDH ratio)). Settings: 24 h compound incubation, read-out: p21_EC50.
Format: cell-based
Experimental: The colon carcinoma cell line HCT 116 was obtained from ATCC and cultured in growth medium consisting of Mccoy's 5A Medium (Gibco 16600108) supplemented with 10% FBS (Transgene FS201-02) and 100 units/mL penicillin-streptomycin (Gibco 15140122) and maintained at 37° C. under 5% CO2. On the day of seeding, 2,000 cells in 30 μL of culture media were plated per well to Poly-D-Lysine 384 Well Black Clear Plates (Biocoat 356663) and incubated overnight at 37° C. under 5% CO2. The following day, compounds were serially diluted in DMSO for a total of 11 test concentrations. The typical starting concentration of compounds was 10 μM with 2-fold dilutions. Next, 150 nL of diluted compound was added in duplicate to the assay plate, using an Echo 655 (Labcyte). The plate was centrifuged at 500 RPM for 1 min and then incubated at 37° C. under 5% CO2 for 24 h. After 24 h, medium was removed, and cells were fixed by adding 40 μL of 4% paraformaldehyde solution to each well and incubated for 20 min at room temperature. The plate was then washed 4 times with 100 μL per well of wash buffer (PBS with 0.1% Tween-20) using a microplate washer. Next, 30 μL of ice-cold methanol was added to each well and the plate was incubated at −20° C. for 10 min. The plate was washed 4 times with 100 μL per well of wash buffer by a microplate washer, then 30 μL per well of blocking buffer ((Intercept PBS blocking buffer (LI-COR 927-70001) with 0.05% Tween-20)) was added and the plate was incubated at room temperature with shaking for 2 h. Next, to each test well, 20 μL of primary antibody solution (p21 Wafl/CIP (12D1) RabbitmAb (Cell Signaling Technologies 2947) diluted 1:1000 and GAPDH (D4C6R) Mouse mAb (Cell Signaling Technologies 97166) diluted 1:2000 in blocking buffer) was added and the plate was placed at 4° C., overnight. The following day, the plate was washed 5 times with 100 μL per well of wash buffer using a microplate washer for 5 min. 20 μL per well of secondary antibody (IRDye 680CW Goat anti-Mouse IgG (H+L) (LI-COR 926-68070) diluted 1:2000 in Blocking Buffer and IRDye 800CW Goat anti-Rabbit IgG (H+L) (LI-COR 926-32211) diluted 1:2000 in Blocking Buffer) was then added and the plate was stored for 2 h in the dark at room temperature with shaking. The plate was then washed 4 times with 100 μL per well of wash buffer again using a microplate washer. Finally, the p21 signal and the GAPDH signal were quantified using a LI-COR Odyssey CLx Imager machine reading at 800 nm and 700 nm, respectively. Each plate contained DMSO control (low control) and an internal reference WRN inhibitor (high control) respectively. For quantitation, the 800 nm/700 nm ratio was calculated for each well to give fold p21 induction and then percent activation for each compound well was calculated as follows (100×(ratio cpd well-ratio low control)/(ratio high control−ratio low control). EC50 values for each compound was generated after non-linear regression curve fitting using commercially available software.

EC50 [nM] | Structure (SMILES)
≤ 500 | CCc1c(N2CCN(C(=O)c3ncnc(C)c3O)[C@H]3CC[C@@H]32)c(=O)c2nn([C@@H]3CC3(F)F)nc2n1CC(=O)Nc1ccc(C(F)(F)F)cc1Cl (single isomer, unassigned) [Compound I-216]
≤ 500 | CCc1c(N2CCN(C(=O)c3ncnc(C)c3O)[C@H]3CC[C@@H]32)c(=O)c2nn(-c3ccnc(OC)c3)nc2n1CC(=O)NC12CC(C3CCC3)(C1)C2 [Compound I-62, N-{3-cyclobutylbicyclo[1.1.1]pentan-1-yl}-2-{5-ethyl-6-[(1S,6S)-5-(5-hydroxy-6-methylpyrimidine-4-carbonyl)-2,5-diazabicyclo[4.2.0]octan-2-yl]-2-(2-methoxypyridin-4-yl)-7-oxo-2H,4H,7H-[1,2,3]triazolo[4,5-b]pyridin-4-yl}acetamide]

Same assay, conditions: Homo sapiens, 24 h compound incubation, read-out: p21_EC50

Structure (SMILES) | EC50 [nM]
CCc1c(N2CCN(C(=O)c3ncnc(C)c3O)CC2)c(=O)c2nn(C3=CCOCC3)nc2n1CC(=O)NC12CC(C(C)C)(C1)C2 [Compound I-38, 2-[2-(3,6-dihydro-2H-pyran-4-yl)-5-ethyl-6-[4-(5-hydroxy-6-methylpyrimidine-4-carbonyl)piperazin-1-yl]-7-oxo-2H,4H,7H-[1,2,3]triazolo[4,5-b]pyridin-4-yl]-N-[3-(propan-2-yl)bicyclo[1.1.1]pentan-1-yl]acetamide] | 500 to 2000
CCc1c(N2CCN(C(=O)c3ncnc(C)c3O)[C@H]3CC[C@@H]32)c(=O)c2nn(-c3ccnc(OC)c3)nc2n1CC(=O)Nc1ccc(C(F)(F)F)cc1Cl [Compound I-55, N-[2-chloro-4-(trifluoromethyl)phenyl]-2-{5-ethyl-6-[(1S,6S)-5-(5-hydroxy-6-methylpyrimidine-4-carbonyl)-2,5-diazabicyclo[4.2.0]octan-2-yl]-2-(2-methoxypyridin-4-yl)-7-oxo-2H,4H,7H-[1,2,3]triazolo[4,5-b]pyridin-4-yl}acetamide] | ≤ 500
CCc1c(N2CCN(C(=O)c3ncnc(C)c3O)[C@H]3CC[C@@H]32)c(=O)c2nn(-c3ccn(C4CC4)n3)nc2n1CC(=O)NC12CC(C(C)C)(C1)C2 [Compound I-60, 2-[2-(1-cyclopropyl-1H-pyrazol-3-yl)-5-ethyl-6-[(1S,6S)-5-(5-hydroxy-6-methylpyrimidine-4-carbonyl)-2,5-diazabicyclo[4.2.0]octan-2-yl]-7-oxo-2H,4H,7H-[1,2,3]triazolo[4,5-b]pyridin-4-yl]-N-[3-(propan-2-yl)bicyclo[1.1.1]pentan-1-yl]acetamide] | ≤ 500
CCc1c(N2CCN(C(=O)c3ncnc(C)c3O)[C@H]3CC[C@@H]32)c(=O)c2nn(C3=CCOC(C)C3)nc2n1CC(=O)NC12CC(C3CC3)(C1)C2 (stereo partly drawn) [Compound I-172, N-{3-cyclopropylbicyclo[1.1.1]pentan-1-yl}-2-{5-ethyl-6-[(1S,6S)-5-(5-hydroxy-6-methylpyrimidine-4-carbonyl)-2,5-diazabicyclo[4.2.0]octan-2-yl]-2-(2-methyl-3,6-dihydro-2H-pyran-4-yl)-7-oxo-2H,4H,7H-[1,2,3]triazolo[4,5-b]pyridin-4-yl}acetamide] | ≤ 500
CCc1c(N2CCN(C(=O)c3ncnc(C)c3O)[C@H]3CC[C@@H]32)c(=O)c2nn(-c3ccnc(C(F)(F)F)c3)nc2n1CC(=O)NC12CC(C3CC3)(C1)C2 [Compound I-176, N-{3-cyclopropylbicyclo[1.1.1]pentan-1-yl}-2-{5-ethyl-6-[(1S,6S)-5-(5-hydroxy-6-methylpyrimidine-4-carbonyl)-2,5-diazabicyclo[4.2.0]octan-2-yl]-7-oxo-2-[2-(trifluoromethyl)pyridin-4-yl]-2H,4H,7H-[1,2,3]triazolo[4,5-b]pyridin-4-yl}acetamide] | ≤ 500
CCc1c(N2CCN(C(=O)c3ncnc(C)c3O)[C@H]3CC[C@@H]32)c(=O)c2nn(C3=CCN(CC(F)F)CC3)nc2n1CC(=O)NC12CC(C3CC3)(C1)C2 [Compound I-185, N-{3-cyclopropylbicyclo[1.1.1]pentan-1-yl}-2-{2-[1-(2,2-difluoroethyl)-1,2,3,6-tetrahydropyridin-4-yl]-5-ethyl-6-[(1S,6S)-5-(5-hydroxy-6-methylpyrimidine-4-carbonyl)-2,5-diazabicyclo[4.2.0]octan-2-yl]-7-oxo-2H,4H,7H-[1,2,3]triazolo[4,5-b]pyridin-4-yl}acetamide] | ≤ 500
CCc1c(N2CCN(C(=O)c3c(OC)ccc4ncoc34)[C@H]3CC[C@@H]32)c(=O)c2nn(C3=CCOCC3)nc2n1CC(=O)NC12CC(C3CC3)(C1)C2 [Compound I-192, N-{3-cyclopropylbicyclo[1.1.1]pentan-1-yl}-2-[2-(3,6-dihydro-2H-pyran-4-yl)-5-ethyl-6-[(1S,6S)-5-(6-methoxy-1,3-benzoxazole-7-carbonyl)-2,5-diazabicyclo[4.2.0]octan-2-yl]-7-oxo-2H,4H,7H-[1,2,3]triazolo[4,5-b]pyridin-4-yl]acetamide] | ≤ 500

Second part, the molecule after the results:

EC50 [nM] | Structure (SMILES)
≤ 500 | CCc1c(N2CCN(C(=O)c3ncnc(C)c3O)[C@H]3CCC[C@@H]32)c(=O)c2nn(-c3ccnc(OC)c3)nc2n1CC(=O)NC12CC(C3CC3)(C1)C2 [Compound I-33, 2-{6-[(4aS,7aS)-4-(5-hydroxy-6-methylpyrimidine-4-carbonyl)-octahydro-1H-cyclopenta[b]pyrazin-1-yl]-5-ethyl-2-(2-methoxypyridin-4-yl)-7-oxo-2H,4H,7H-[1,2,3]triazolo[4,5-b]pyridin-4-yl}-N-{3-cyclopropylbicyclo[1.1.1]pentan-1-yl}acetamide]
≤ 500 | CCc1c(N2CCN(C(=O)c3ncnc(C)c3O)[C@H]3CCC[C@@H]32)c(=O)c2nn(C3=CCOCC3)nc2n1CC(=O)NC12CC(C3CC3)(C1)C2 [Compound I-39, 2-{6-[(4aS,7aS)-4-(5-hydroxy-6-methylpyrimidine-4-carbonyl)-octahydro-1H-cyclopenta[b]pyrazin-1-yl]-2-(3,6-dihydro-2H-pyran-4-yl)-5-ethyl-7-oxo-2H,4H,7H-[1,2,3]triazolo[4,5-b]pyridin-4-yl}-N-{3-cyclopropylbicyclo[1.1.1]pentan-1-yl}acetamide]
≤ 500 | CCc1c(N2CCN(C(=O)c3ncnc(C)c3O)[C@H]3CC[C@@H]32)c(=O)c2nn(C3=CCC(OC)CC3)nc2n1CC(=O)NC12CC(C3CC3)(C1)C2 (stereo partly drawn) [Compound I-173, N-{3-cyclopropylbicyclo[1.1.1]pentan-1-yl}-2-{5-ethyl-6-[(1S,6S)-5-(5-hydroxy-6-methylpyrimidine-4-carbonyl)-2,5-diazabicyclo[4.2.0]octan-2-yl]-2-(4-methoxycyclohex-1-en-1-yl)-7-oxo-2H,4H,7H-[1,2,3]triazolo[4,5-b]pyridin-4-yl}acetamide]
≤ 500 | CCc1c(N2CCN(C(=O)c3ncnc(C)c3O)[C@H]3CC[C@@H]32)c(=O)c2nn(-c3ccnc(C(F)F)c3)nc2n1CC(=O)NC12CC(C3CC3)(C1)C2 [Compound I-182, N-{3-cyclopropylbicyclo[1.1.1]pentan-1-yl}-2-{2-[2-(difluoromethyl)pyridin-4-yl]-5-ethyl-6-[(1S,6S)-5-(5-hydroxy-6-methylpyrimidine-4-carbonyl)-2,5-diazabicyclo[4.2.0]octan-2-yl]-7-oxo-2H,4H,7H-[1,2,3]triazolo[4,5-b]pyridin-4-yl}acetamide]
≤ 500 | CCc1c(N2CCN(C(=O)c3c(F)cnc(OC)c3O)[C@H]3CC[C@@H]32)c(=O)c2nn(C3=CCOCC3)nc2n1CC(=O)NC12CC(C3CC3)(C1)C2 [Compound I-183, N-{3-cyclopropylbicyclo[1.1.1]pentan-1-yl}-2-[2-(3,6-dihydro-2H-pyran-4-yl)-5-ethyl-6-[(1S,6S)-5-(5-fluoro-3-hydroxy-2-methoxypyridine-4-carbonyl)-2,5-diazabicyclo[4.2.0]octan-2-yl]-7-oxo-2H,4H,7H-[1,2,3]triazolo[4,5-b]pyridin-4-yl]acetamide]
500 to 2000 | CCc1c(N2CCN(C(=O)c3ncnc(C)c3O)[C@H]3CC[C@@H]32)c(=O)c2nn(-c3ccnc(OC)c3)cc2n1CC(=O)NC12CC(C3CC3)(C1)C2 [Compound I-188, N-{3-cyclopropylbicyclo[1.1.1]pentan-1-yl}-2-{5-ethyl-6-[(1S,6S)-5-(5-hydroxy-6-methylpyrimidine-4-carbonyl)-2,5-diazabicyclo[4.2.0]octan-2-yl]-2-(2-methoxypyridin-4-yl)-7-oxo-2H,4H,7H-pyrazolo[4,3-b]pyridin-4-yl}acetamide]
